Measured values taken from patent US9676760B2, “Fused heterocyclic compounds as ion channel modulators” (Gilead Sciences, Inc., priority 2011, dated 2017).

Assays:
[1] = molecular target: T1, wild-type human cardiac sodium channel, hNav1.5 (Homo sapiens, UniProt Q14524); test: Peak INa screening assay (tonic and use-dependent block); type: cell-based; conditions: compound at 1 μM
Protocol: The late sodium current (Late INa) and peak sodium current (Peak INa) assays are performed on an automated electrophysiology platform, QPatch 16× (Sophion Bioscience, Copenhagen, Denmark), which uses the whole cell patch clamp technique to measure currents through the cell membrane of up to 16 cells at a time. The assay uses an HEK293 (human embryonic kidney) cell line heterologously expressing the wild-type human cardiac sodium channel, hNav1.5, purchased from Millipore (Billerica, Mass.). No beta subunits were coexpressed with the Na channel alpha subunit. Cells are maintained with standard tissue culture procedures and stable channel expression is maintained with 400 μg/mL Geneticin in the culture medium. Cells isolated for use on QPatch are incubated for 5 minutes in Detachin 1×(Genlantis, San Diego, USA) at 37° C. to ensure that 80-90% of the cells are single and not part of a cell cluster. Experiments are carried out at 23-25° C.
For both the Late INa and Peak INa assays, series resistance compensation is set to 100% and series resistance and whole-cell compensation are performed automatically. Currents are digitized at 25 kHz and low-pass filtered at 12 kHz and 10 kHz for the late and peak INa assays, respectively. Currents through open sodium channels are automatically recorded and stored in the Sophion Bioscience Oracle database (Sophion Bioscience, Copenhagen, Denmark). Analysis is performed using QPatch Assay and database software and data are compiled in Excel.
Compound stocks are routinely made by the Gilead Sample Bank in plastic vials to 10 mM in dimethyl sulfoxide (DMSO). In some cases, when compounds are not soluble in DMSO, they are made in 100% ethanol. Stocks are sonicated as necessary. The extracellular solution for screening Late INa is composed of: 140 mM NaCl, 4 mM KCl, 1.8 mM CaCl2, 0.75 mM MgCl2 and 5 mM HEPES with pH adjusted to 7.4 using NaOH. The intracellular solution used to perfuse the inside of the cells for both the Late INa and Peak INa assays contains: 120 mM CsF, 20 mM CsCl, 5 mM EGTA, 5 mM HEPES and pH adjusted to 7.4 with CsOH. Compounds are diluted in extracellular solution to 1 μM in glass vials and then transferred to glass well plates before robotic addition to the cells. The 0 mM Na extracellular solution (0Na-ECF) used at the end of each experiment for the Late INa and Peak INa assays to measure baseline current contains: 140 mM N-methyl-D-glucamine; 4 mM KCl; 1.8 mM CaCl2; 0.75 mM MgCl2; 5 mM HEPES and pH was adjusted to 7.4 with HCl.
Compounds were also evaluated for their effect in several other assays, including their effect on Peak INa. […] Since the peak INa in the cells used herein can be very large, introducing artifacts in the recording, the concentration of Na^+ in the bath can be reduced to 20 mM and a nonpermeant cation added to compensate for the Na^+ that was removed to maintain the osmolarity and ionic strength of the solution (see solution details below).
A low stimulation frequency of 0.1 Hz was used to determine the effect of the test compound when the channel spent most of the time in the resting (closed) state and provides information about Tonic Block (TB). A higher stimulation frequency (3 Hz) was used to measure block of the channel when it spent more time in the activated and inactivated states and provided a measure of Use-Dependent Block (UDB). Use-dependent block refers to the accumulation of block with increased frequency of channel activation.

[2] = molecular target: T1, wild-type human cardiac sodium channel, hNav1.5; test: Late INa screening assay (QPatch whole cell patch clamp, HEK293); type: cell-based; conditions: HEK293, percent block of late INa; compound at 1 μM; 10 μM Tefluthrin; read-out: Late INa 1 μM
How it was run: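 HEK293 stably expressing hNav1.5 without beta subunits, recorded at 23-25° C. Late current was induced by 10 μM tefluthrin. Cells were depolarized from −120 mV to −20 mV for 250 ms at 0.1 Hz. Compounds were tested at 1 μM in extracellular solution, with baseline taken in 0Na-ECF; output is percent block of late INa.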

[3] = tonic block of peak INa, 0.1 Hz, read-out: Peak TB 1 μM
[4] = use-dependent block of peak INa, 3 Hz, read-out: Peak UDB 1 μM

T1 sequence (Q14524 whole entry): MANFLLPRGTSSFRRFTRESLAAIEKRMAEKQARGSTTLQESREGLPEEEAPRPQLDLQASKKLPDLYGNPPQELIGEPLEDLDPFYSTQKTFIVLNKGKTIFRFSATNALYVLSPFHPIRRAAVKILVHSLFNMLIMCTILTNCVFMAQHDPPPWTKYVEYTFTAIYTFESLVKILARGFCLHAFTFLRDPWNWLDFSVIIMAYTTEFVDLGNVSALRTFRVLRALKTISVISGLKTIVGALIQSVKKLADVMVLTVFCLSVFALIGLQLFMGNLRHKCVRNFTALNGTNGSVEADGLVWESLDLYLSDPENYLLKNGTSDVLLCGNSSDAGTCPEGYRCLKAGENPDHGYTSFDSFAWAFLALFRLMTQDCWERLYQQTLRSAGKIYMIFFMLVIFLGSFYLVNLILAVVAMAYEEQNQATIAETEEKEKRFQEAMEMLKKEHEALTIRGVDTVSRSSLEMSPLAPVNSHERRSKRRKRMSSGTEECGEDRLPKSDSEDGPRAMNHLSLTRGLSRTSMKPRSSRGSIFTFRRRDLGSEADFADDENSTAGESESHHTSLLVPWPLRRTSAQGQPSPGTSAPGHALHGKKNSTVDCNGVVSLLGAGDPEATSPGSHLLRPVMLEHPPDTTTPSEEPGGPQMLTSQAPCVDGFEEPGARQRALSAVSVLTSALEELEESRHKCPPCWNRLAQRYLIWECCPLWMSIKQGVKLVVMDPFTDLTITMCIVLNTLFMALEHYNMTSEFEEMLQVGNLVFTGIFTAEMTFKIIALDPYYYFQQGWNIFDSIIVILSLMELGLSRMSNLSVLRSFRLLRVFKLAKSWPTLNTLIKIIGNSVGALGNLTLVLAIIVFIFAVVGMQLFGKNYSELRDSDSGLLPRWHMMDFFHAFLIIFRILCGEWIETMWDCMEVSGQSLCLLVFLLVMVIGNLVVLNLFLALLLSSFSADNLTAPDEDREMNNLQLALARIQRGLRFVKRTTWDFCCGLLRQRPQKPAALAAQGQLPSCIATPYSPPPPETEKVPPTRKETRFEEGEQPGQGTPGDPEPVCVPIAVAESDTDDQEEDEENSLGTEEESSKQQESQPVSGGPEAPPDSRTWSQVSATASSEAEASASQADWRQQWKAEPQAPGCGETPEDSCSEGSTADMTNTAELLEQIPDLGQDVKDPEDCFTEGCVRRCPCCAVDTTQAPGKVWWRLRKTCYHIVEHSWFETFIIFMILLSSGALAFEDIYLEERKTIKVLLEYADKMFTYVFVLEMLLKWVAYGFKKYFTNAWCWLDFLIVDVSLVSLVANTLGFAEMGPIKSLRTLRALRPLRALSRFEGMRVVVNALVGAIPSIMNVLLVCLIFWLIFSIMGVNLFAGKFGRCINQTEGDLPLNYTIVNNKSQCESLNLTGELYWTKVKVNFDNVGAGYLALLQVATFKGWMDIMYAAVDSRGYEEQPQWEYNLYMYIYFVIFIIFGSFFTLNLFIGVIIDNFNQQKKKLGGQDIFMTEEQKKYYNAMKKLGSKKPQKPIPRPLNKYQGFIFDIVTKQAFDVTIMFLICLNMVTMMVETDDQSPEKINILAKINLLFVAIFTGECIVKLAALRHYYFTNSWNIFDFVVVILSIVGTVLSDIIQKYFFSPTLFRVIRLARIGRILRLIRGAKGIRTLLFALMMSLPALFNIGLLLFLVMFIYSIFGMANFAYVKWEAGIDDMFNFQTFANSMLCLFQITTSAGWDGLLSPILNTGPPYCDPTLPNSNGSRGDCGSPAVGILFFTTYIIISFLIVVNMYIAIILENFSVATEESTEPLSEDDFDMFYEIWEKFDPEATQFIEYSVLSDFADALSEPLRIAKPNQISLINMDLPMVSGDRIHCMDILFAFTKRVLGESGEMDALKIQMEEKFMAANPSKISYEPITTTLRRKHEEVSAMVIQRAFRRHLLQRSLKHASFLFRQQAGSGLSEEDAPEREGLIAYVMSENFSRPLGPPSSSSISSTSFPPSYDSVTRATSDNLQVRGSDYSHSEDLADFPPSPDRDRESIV

Compound | inhibition at 1 µM [1, 3] | inhibition at 1 µM [1, 4] | inhibition at 1 µM [2]
O=C1c2cc(-c3ccc(C(F)(F)F)cc3)ccc2OCCN1Cc1ncccc1F [II-176, 4-((3-fluoropyridin-2-yl)methyl)-7-(4-(trifluoromethyl)phenyl)-3,4-dihydrobenzo[f][1,4]oxazepin-5(2H)-one] | 45% | 44% | 68%
COc1ccnc(CN2CCOc3ccc(-c4ccc(OC(F)(F)F)cc4)cc3C2=O)n1 [II-137, 4-((4-methoxypyrimidin-2-yl)methyl)-7-(4-(trifluoromethoxy)phenyl)-3,4-dihydrobenzo[f][1,4]oxazepin-5(2H)-one] | 28% | 26% | 54%
O=C1c2cc(-c3ccc(OC(F)(F)F)cc3)c(F)cc2OCCN1Cc1ccccc1 [II-167, 4-benzyl-8-fluoro-7-(4-(trifluoromethoxy)phenyl)-3,4-dihydrobenzo[f][1,4]oxazepin-5(2H)-one] | 20% | 25% | 56%
O=C1c2cc(-c3ccc(OC(F)(F)F)cc3)ccc2OCCN1CCn1cccn1 [II-50, 4-(2-(1H-pyrazol-1-yl)ethyl)-7-(4-(trifluoromethoxy)phenyl)-3,4-dihydrobenzo[f][1,4]oxazepin-5(2H)-one] | 5% | 19% | 48%
O=C1c2cc(-c3ccc(OC(F)(F)F)cc3)ccc2OCCN1Cc1c(F)cccc1F [II-49, 4-(2,6-difluorobenzyl)-7-(4-(trifluoromethoxy)phenyl)-3,4-dihydrobenzo[f][1,4]oxazepin-5(2H)-one] | 28% | 44% | 63%
COc1cccnc1CN1CCOc2cnc(-c3ccc(OC(F)(F)F)cc3)cc2C1=O [XII-10, 4-((3-methoxypyridin-2-yl)methyl)-7-(4-(trifluoromethoxy)phenyl)-3,4-dihydropyrido[4,3-f][1,4]oxazepin-5(2H)-one] | 13% | 20% | 45%
O=C1c2cc(-c3ccc(C4CC4)s3)ccc2OCCN1Cc1ccccn1 [VI-32, 7-(5-cyclopropylthiophen-2-yl)-4-(pyridin-2-ylmethyl)-3,4-dihydrobenzo[f][1,4]oxazepin-5(2H)-one] | 28% | 26% | 66%
O=C1c2cc(-c3ccc(OC(F)(F)F)cc3)ccc2OCCN1Cc1c(Cl)cccc1Cl [II-48, 4-(2,6-dichlorobenzyl)-7-(4-(trifluoromethoxy)phenyl)-3,4-dihydrobenzo[f][1,4]oxazepin-5(2H)-one] | 13% | 53% | 47%
Cc1cnn(CN2CCOc3ccc(-c4ccc(OC(F)(F)F)cc4)cc3C2=O)c1 [II-155, 4-((4-methyl-1H-pyrazol-1-yl)methyl)-7-(4-(trifluoromethoxy)phenyl)-3,4-dihydrobenzo[f][1,4]oxazepin-5(2H)-one] | 13% | 11% | 38%
O=C1c2cc(-c3ccc(OC(F)(F)F)cc3)ccc2OCCN1Cc1ccccc1 [II-134, 4-benzyl-7-(4-(trifluoromethoxy)phenyl)-3,4-dihydrobenzo[f][1,4]oxazepin-5(2H)-one] | 38% | 34% | 69%
O=C(Cc1ccccn1)N1CCOc2ccc(-c3ccc(C(F)(F)F)cc3)cc2C1 [III-29, 2-(pyridin-2-yl)-1-(7-(4-(trifluoromethyl)phenyl)-2,3-dihydrobenzo[f][1,4]oxazepin-4(5H)-yl)ethanone] | 11% | 14% | 48%
O=C1c2cc(-c3ccc(C(F)(F)F)cc3)c(F)cc2OCCN1Cc1ccccc1 [II-168, 4-benzyl-8-fluoro-7-(4-(trifluoromethyl)phenyl)-3,4-dihydrobenzo[f][1,4]oxazepin-5(2H)-one] | 36% | 47% | 44%
O=C1c2cc(-c3ccc(CC(F)(F)F)cc3)ccc2OCCN1Cc1ccccn1 [II-151, 4-(pyridin-2-ylmethyl)-7-(4-(2,2,2-trifluoroethyl)phenyl)-3,4-dihydrobenzo[f][1,4]oxazepin-5(2H)-one] | 13% | 14% | 51%
O=C1c2cc(Nc3ccc(OC(F)(F)F)cc3)ccc2OCCN1Cc1ccccn1 [XIII-4, 4-(pyridin-2-ylmethyl)-7-(4-(trifluoromethoxy)phenylamino)-3,4-dihydrobenzo[f][1,4]oxazepin-5(2H)-one] | 8% | 9% | 51%
Cn1ccnc1CN1CCOc2ccc(-c3ccc(OC(F)(F)F)cc3)cc2C1=O [II-186, 4-((1-methyl-1H-imidazol-2-yl)methyl)-7-(4-(trifluoromethoxy)phenyl)-3,4-dihydrobenzo[f][1,4]oxazepin-5(2H)-one] | 20% | 30% | 55%
O=C1c2cc(-c3ccc(C(F)(F)F)s3)ccc2OCCN1Cc1ccccn1 [VI-31, 4-(pyridin-2-ylmethyl)-7-(5-(trifluoromethyl)thiophen-2-yl)-3,4-dihydrobenzo[f][1,4]oxazepin-5(2H)-one] | 50% | 42% | 61%
Cn1cc(C(=O)N2CCOc3ccc(-c4ccc(OC(F)(F)F)cc4)cc3C2)cn1 [III-12, (1-methyl-1H-pyrazol-4-yl)(7-(4-(trifluoromethoxy)phenyl)-2,3-dihydrobenzo[f][1,4]oxazepin-4(5H)-yl)methanone] | 10% | 17% | 39%
O=C1c2cc(-c3ccc(OC(F)(F)F)cc3)ccc2OCCN1Cc1nccn1Cc1ccccc1 [II-187] | 9% | 21% | 62%
O=C1c2cc(-c3ccc(OCC4CCC4)cc3)ccc2OCCN1Cc1ncccn1 [II-144, 7-(4-(cyclobutylmethoxy)phenyl)-4-(pyrimidin-2-ylmethyl)-3,4-dihydrobenzo[f][1,4]oxazepin-5(2H)-one] | 34% | 41% | 68%
CN1C(=O)CN(Cc2ccccc2)C(=O)c2cc(-c3ccc(C(F)(F)F)cc3)ccc21 [Compound X-11, 4-benzyl-1-methyl-7-(4-(trifluoromethyl)phenyl)-3,4-dihydro-1H-benzo[e][1,4]diazepine-2,5-dione] | 17% | 20% | 48%
Cc1cncc(CN2CCOc3ccc(-c4ccc(OC(F)(F)F)cc4)cc3C2=O)n1 [II-175, 4-((6-methylpyrazin-2-yl)methyl)-7-(4-(trifluoromethoxy)phenyl)-3,4-dihydrobenzo[f][1,4]oxazepin-5(2H)-one] | 21% | 16% | 53%
O=C1c2cc(-c3ccc(C(F)(F)F)cc3)cc(F)c2OCCN1Cc1ccccc1 [II-166, 4-benzyl-9-fluoro-7-(4-(trifluoromethyl)phenyl)-3,4-dihydrobenzo[f][1,4]oxazepin-5(2H)-one] | 20% | 34% | 53%
O=C1c2cc(-c3ccc(C(F)(F)F)cc3)ccc2OCCN1Cc1ccccc1 [II-141, 4-benzyl-7-(4-(trifluoromethyl)phenyl)-3,4-dihydrobenzo[f][1,4]oxazepin-5(2H)-one] | 40% | 40% | 73%
